What was measured:
Settings in all cases: 72 h
HepG2 [1] = assay: cell viability relative to DMSO; higher = less toxic
U2OS [2] = assay: as above
Vero E6 [3] = assay: as above
Caco-2 [4] = assay: as above
Calu-3 [5] = assay: as above
HepG2 [6] = assay: drug sensitivity score (DSS) for viability; higher = more toxic; extreme values may be limits of the assay
U2OS [7] = assay: as above
Vero E6 [8] = assay: as above
Caco-2 [9] = assay: as above
Calu-3 [10] = assay: as above
HepG2 [11] = assay: relative viability EC50 (midpoint between 100% and the lowest measured viability); higher = less toxic
U2OS [12] = assay: as above
Vero E6 [13] = assay: as above
Caco-2 [14] = assay: as above
Calu-3 [15] = assay: as above

| SMILES | cell viability (HepG2 [1]; 1 nM) | cell viability (HepG2 [1]; 10 nM) | cell viability (HepG2 [1]; 100 nM) | cell viability (HepG2 [1]; 1000 nM) | cell viability (HepG2 [1]; 10000 nM) | cell viability (U2OS [2]; 1 nM) | cell viability (U2OS [2]; 10 nM) | cell viability (U2OS [2]; 100 nM) | cell viability (U2OS [2]; 1000 nM) | cell viability (U2OS [2]; 10000 nM) | cell viability (Vero E6 [3]; 1 nM) | cell viability (Vero E6 [3]; 10 nM) | cell viability (Vero E6 [3]; 100 nM) | cell viability (Vero E6 [3]; 1000 nM) | cell viability (Vero E6 [3]; 10000 nM) | cell viability (Caco-2 [4]; 1 nM) | cell viability (Caco-2 [4]; 10 nM) | cell viability (Caco-2 [4]; 100 nM) | cell viability (Caco-2 [4]; 1000 nM) | cell viability (Caco-2 [4]; 10000 nM) | cell viability (Calu-3 [5]; 1 nM) | cell viability (Calu-3 [5]; 10 nM) | cell viability (Calu-3 [5]; 100 nM) | cell viability (Calu-3 [5]; 1000 nM) | cell viability (Calu-3 [5]; 10000 nM) | drug sensitivity score (HepG2 [6]) | drug sensitivity score (U2OS [7]) | drug sensitivity score (Vero E6 [8]) | drug sensitivity score (Caco-2 [9]) | drug sensitivity score (Calu-3 [10]) | relative viability EC50 (HepG2 [11]) | relative viability EC50 (U2OS [12]) | relative viability EC50 (Vero E6 [13]) | relative viability EC50 (Caco-2 [14]) | relative viability EC50 (Calu-3 [15]) |
| --- | --- | --- | --- | --- | --- | --- | --- | --- | --- | --- | --- | --- | --- | --- | --- | --- | --- | --- | --- | --- | --- | --- | --- | --- | --- | --- | --- | --- | --- | --- | --- | --- | --- | --- | --- |
| CC(=O)N(OCc1ccccc1)[C@@H]1c2cc(C#N)ccc2OC(C)(C)[C@H]1O | 95.1% | 103% | 96.2% | 109% | 109% | 97.5% | 96.1% | 105% | 94.5% | 94.8% | 95.3% | 97.7% | 94.2% | 99.9% | 109% | 97.8% | 100% | 99% | 96.5% | 103% | 103% | 96.9% | 98% | 103% | 106% | 0 | 0 | 0 | 0 | 0 | > 10 µM | > 10 µM | > 10 µM | > 10 µM | > 10 µM |
| CC(C)(Cc1c[nH]c2ccc(Cl)cc12)NCCOc1ccccc1OCC1CC1 | 98.1% | 98.7% | 99.3% | 89.3% | -0.3% | 102% | 102% | 102% | 97.3% | 1.5% | 93.9% | 98% | 93.4% | 99.4% | 24.4% | 104% | 108% | 88.6% | 103% | 3.5% | 91.4% | 98.1% | 103% | 97.4% | 0.9% | 7.3 | 5.8 | 4.3 | 5.1 | 5.9 | 2.28 µM | 2.97 µM | 3.11 µM | 3.33 µM | 2.98 µM |
| CC(C)c1cccc2c(-c3ccccc3)cc(-c3ccc(-c4ccc(C(=O)O)cc4)[nH]3)nc12 | 94.8% | 87.1% | 100% | 98.8% | 87.6% | 97.5% | 101% | 98.9% | 103% | 96.9% | 95.6% | 94% | 86.7% | 83.9% | 91.3% | 89.3% | 102% | 96.5% | 91.7% | 76.1% | 103% | 96.2% | 99.2% | 117% | 103% | 0 | 0 | 1.4 | 1.5 | 0 | > 10 µM | > 10 µM | > 10 µM | > 10 µM | > 10 µM |
| CCN(CCNC(=O)Nc1ccccc1Br)c1cccc(C)c1 | 95.1% | 101% | 90.8% | 99.6% | 96.5% | 98.9% | 103% | 97% | 99.5% | 93.5% | 108% | 114% | 105% | 120% | 97.8% | 92.4% | 102% | 93.1% | 102% | 90.5% | 93.6% | 96.3% | 93.7% | 91.3% | 101% | 0 | 0 | 0 | 0 | 0 | > 10 µM | > 10 µM | > 10 µM | > 10 µM | > 10 µM |
| CCc1ccccc1OC[C@@H](O)CN[C@H]1CCCc2ccccc21 | 95.6% | 103% | 99.1% | 99.9% | 89.5% | 96.6% | 92.2% | 98.2% | 95.5% | 87% | 94.7% | 97.2% | 89.5% | 95.3% | 106% | 102% | 98.9% | 100% | 95.6% | 87.6% | 104% | 98.5% | 99.7% | 91.1% | 80.8% | 0 | 0 | 0 | 0.3 | 1.4 | > 10 µM | > 10 µM | > 10 µM | > 10 µM | > 10 µM |
| COc1ccc(OC)c2c(=S)c3ccccc3[nH]c12 | 88.8% | 96.3% | 94% | 98.9% | 76.6% | 102% | 98.3% | 102% | 99.7% | 103% | 99.4% | 104% | 102% | 97.2% | 96.2% | 112% | 96.7% | 99.5% | 102% | 88.6% | 105% | 100% | 99.4% | 108% | 106% | 1 | 0 | 0 | 0 | 0 | > 10 µM | > 10 µM | > 10 µM | > 10 µM | > 10 µM |
| Cc1cc(Cn2cnc3c2C[C@@H](C(=O)O)N(C(=O)C(c2ccccc2)c2ccccc2)C3)ccc1N(C)C | 101% | 90.7% | 105% | 99.9% | 110% | 93.3% | 102% | 96% | 103% | 107% | 96.5% | 90.4% | 99.3% | 96.5% | 103% | 91.4% | 97.9% | 94.1% | 108% | 110% | 87.3% | 106% | 103% | 98.1% | 114% | 0 | 0 | 0 | 0 | 0 | > 10 µM | > 10 µM | > 10 µM | > 10 µM | > 10 µM |
| Cc1nc(Nc2n[nH]c3c2CN(C(=O)N[C@H](CN(C)C)c2ccccc2)C3(C)C)c2sccc2n1 | 89% | 72.6% | 38.4% | 26.6% | 10.3% | 100% | 88.6% | 54.5% | 35% | 0.8% | 97.9% | 99.9% | 93.7% | 64.4% | 46.6% | 98.9% | 97.9% | 70.6% | 68.8% | 45.9% | 92.2% | 89.9% | 82% | 61.7% | 25.2% | 24.9 | 19 | 7.4 | 9.5 | 10.1 | 0.0349 µM | 0.192 µM | 0.552 µM | 0.203 µM | 0.571 µM |
| Nc1n[nH]c2nnc(-c3c(-c4ccccc4)nn4ccccc34)cc12 | 102% | 95.2% | 103% | 97.9% | 91.8% | 98.2% | 102% | 94.9% | 102% | 89.1% | 105% | 93.6% | 97% | 94.8% | 84.5% | 95.7% | 107% | 90.4% | 97.1% | 84.3% | 98.9% | 102% | 99.8% | 90% | 95% | 0 | 0 | 0.2 | 0.2 | 0 | > 10 µM | > 10 µM | > 10 µM | > 10 µM | > 10 µM |
| O=C(O)COc1cccc(-c2ocnc2-c2nc(-c3ccccc3)c(-c3ccccc3)o2)c1 | 105% | 102% | 93.6% | 95% | 105% | 102% | 97.7% | 97.5% | 102% | 101% | 99% | 104% | 102% | 104% | 101% | 109% | 101% | 95.5% | 94.4% | 81.8% | 92.9% | 95.8% | 95% | 100% | 105% | 0 | 0 | 0 | 0.7 | 0 | > 10 µM | > 10 µM | > 10 µM | > 10 µM | > 10 µM |
| O=c1cc(N2CCNCC2)oc2c(-c3ccccc3)cccc12 | 105% | 100% | 98.2% | 101% | 102% | 96.6% | 100% | 96.8% | 102% | 101% | 100% | 96.4% | 104% | 93.1% | 103% | 93.3% | 88.9% | 89.2% | 93.9% | 106% | 109% | 98.4% | 108% | 106% | 117% | 0 | 0 | 0 | 0 | 0 | > 10 µM | > 10 µM | > 10 µM | > 10 µM | > 10 µM |

Reference: the supplement of paper PMC13380429
